Usually solubility stands for the dissolved amount per volume that the medium holds. Higher therefore signals much dissolved substance.

Common to all, as to format: physicochemical
Data set [1] is described as follows: moisture sorption/desorption measurements. The note with it: based on moisture sorption/desorption measurements.
Data set [2] is described as follows: physical and chemical stability under stress conditions.
Data set [3] in a line: intrinsic dissolution rate. To be noted: pH 2.0 buffer.
A further data set is described as follows: solubility.

A value given as a limit tells only on which side of the number the result lay.

As to `Cc1nc2ccccc2c(-c2ccc3c4c(ccnc24)CCO3)c1[C@H](OC(C)(C)C)C(=O)O` (atropisomer, axis not shown) [Type A], the hygroscopicity result in data set [1] is given as “non-hygroscopic”. Further, the “physical and chemical stability” value in data set [2] was “exhibits physical and chemical stability”. This compound had an intrinsic dissolution rate in data set [3] of 4528 μg/[cm^2×min]. Moreover, the solubility was above 24 mg/mL in “solubility” (pH 2, simulated gastric fluid); above 24 mg/mL in the data set “solubility” (pH 4.5, aqueous buffer); above 24 mg/mL in the data set “solubility” (pH 6.8, aqueous buffer).

The values above are taken from patent publication US20140094486A1, “SOLID STATE FORMS OF HIV INHIBITOR” (Gilead Sciences, Inc., priority 2011, published 2014).
